Laboratory results taken from patent US20210186923A1, “THERAPEUTIC FORMULATIONS AND USES THEREOF” (PIEDMONT ANIMAL HEALTH INC., priority 2017, published 2021).

Legend:
[1] = tested on: dogs with naturally occurring coxofemoral joint disease; assay: PAH-100 oral tablet efficacy (PAH16-013), kinetic gait analysis; details: for abnormal clinical observations or adverse events: nine hound dogs, each received all treatments, PAH-100 single oral 3 mg/kg, carprofen 4.4 mg/kg PO q24 hr, 7 doses
Procedure: (§1) Efficacy was determined by rear limb using a quantified kinetic gait analysis.

[2] = tested on: dogs with naturally occurring coxofemoral joint disease; details: dog, in vivo, po, 3 mg/kg
Procedure: as §1

SMILES	abnormal clinical observations or adverse events [1]	tolerability [2]	limb use by kinetic gait analysis, compared to no treatment and daily carprofen ([1]; dogs with coxofemoral joint osteoarthritis, single oral 3 mg/kg, over 7 days, majority of kinetic outcomes)
CC(C(=O)O)c1ccc2c(c1)[nH]c1ccc(Cl)cc12 (stereo not shown) [carprofen, reference compound]	No abnormal clinical observations or adverse events		
O=C(O)C1=Cc2cc(OC(F)(F)F)ccc2OC1C(F)(F)F (racemic) [PAH-100, (±)-6-(trifluoromethoxy)-2-(trifluoromethyl)-2H-chromene-3-carboxylic acid]	No abnormal clinical observations or adverse events	well tolerated	improved limb use
